{
  "source": "patent US6455271B1",
  "about": "“Identification of novel antimicrobial agents using membrane potential indicator dyes” (XOMA Technology, Ltd, priority 1998, dated 2002)",
  "key": {"MDCK cells": {"tested_on": "MDCK cells", "protocol": "(§1) The relative effect of varying concentrations of the antifungal agent miconazole on fungal C. albicans cells treated with membrane potential indicator dye DiOC6(3) [Molecular Probes], mammalian MDCK cells treated with DiOC6(3) and mammalian MDCK cells treated with PI, was assessed as described above in Examples 1 and 2, except that fungal C. albicans or mammalian MDCK cells were resuspended to a concentration of 1×10^6 cells/mL."}, "[1]": {"tested_on": "Candida albicans strain SLU#1", "test": "Flow cytometry of fungal cells treated with test agent and membrane potential dye DiOC6(3)", "format": "cell-based", "settings": "for concentration at which loss of fungal cell viability occurs: C. albicans SLU#1; for change in DiOC6(3) fluorescence intensity (mean channel from baseline) vs. concentration: C. albicans, 1 hour incubation with agent, 10 ng/mL DiOC6(3), FL1 530 nm, FIG. 1 / FIG. 3", "protocol": "A stock fungal cell suspension was prepared as follows. Fungi (Candida albicans strain SLU#1) were cultured on Sabouraud's dextrose agar plates [1 L water, 10 g neopeptone, 20 g dextrose, 15 g Bacto Agar]. One or two colonies from the agar plate were inoculated into 5 mL of Sabouraud's dextrose broth (SDB) [1 L water, 10 g neopeptone, 20 g dextrose] in a sterile 10 mL polypropylene tube and incubated for about 18 hours at 30° C. After this incubation, 4 mL of the fungal culture was inoculated into a flask containing 100 mL of SDB and incubated for about 5 hours or until log growth phase was reached. The culture was centrifuged at 3000 rpm for 5 minutes (Sorvall RT6000B centrifuge), the supernatant was decanted and the pellets were resuspended in a total of 30 mL of SDB. Fungal cell concentration was determined either by absorbance at 570 nm or by diluting 1:10 with Trypan Blue and counting the number of fungal cells using a hemacytometer. The suspension was diluted with SDB to obtain a stock fungal cell suspension of approximately 1-2×10^6 CFU/mL.\nStock 1 mg/mL solutions of peptides XMP.391 and XMP.445 were prepared in saline, and six 2-fold serial dilutions were prepared using phosphate buffered saline (PBS). The fungal cell suspension was divided into 1 mL aliquots, and approximately 20 μL of each serial dilution of XMP.391 or XMP.445 peptide solution was added to an aliquot of fungal cell suspension to obtain final peptide concentrations of 0.313, 0.625, 1.25, 2.5, 5, 10 and 20 μg/mL in the aliquots. No peptide solution was added to the auto-fluorescence and baseline controls. The aliquots were incubated for 1 hour at 30° C. After the incubation, all aliquots were centrifuged at 3000 rpm for 5 minutes (Sorvall RT6000B) and the supernatant removed. The auto-fluorescence control aliquot was resuspended in 1 mL of SDB; the remainder of the samples and the baseline control were resuspended in 1 mL of 10 ng/mL DiOC6(3)/SDB. The auto-fluorescence control thus contained fungal cells in SDB alone (without XMP peptide and without dye), while the baseline control contained fungal cells with dye (but without XMP peptide). […]\nThe samples were analyzed for fluorescence on the FACScan flowcytometer [Becton-Dickinson, Mountain View, Calif.] using the fl1 detector at a wavelength of 530 nm using the following parameters:\nThe auto-fluorescence control was used for gating and fluorescence sensitivity was determined using the baseline control. The percent change in fluorescent intensity, expressed as mean channels, was determined by dividing the difference between the sample and baseline values by the baseline value: (sample fl1−baseline fl1)/baseline fl1×100."}, "[2]": {"tested_on": "Madin-Derby canine kidney epithelial (MDCK) cells", "protocol": "The same procedure was also carried out using mammalian Madin-Derby canine kidney epithelial (MDCK) cells (ATCC Accession No. CCL34). The MDCK cells were cultured until confluent in MEM media supplemented with 10% fetal calf serum (FCS) and L-glutamine. The cells were harvested and resuspended to approximately 1-2×10^6 cells/mL in RPMI media, treated with XMP.391 or XMP.445 at concentrations varying from 5 μg/mL to 100 μg/mL, and incubated for 1 hour. The cells were then stained with DiOC6(3) for 30 minutes and fluorescence intensity was determined in the same manner as described above for C. albicans.\nas §1"}, "C. albicans SLU#1 strain": {"tested_on": "C. albicans SLU#1 strain", "format": "cell-based, Candida albicans"}, "[3]": {"settings": "background statement; cited from earlier work"}, "bacterial growth": {"tested_on": "bacterial growth", "settings": "background statement; cited from earlier work"}, "C. albicans SLU#1": {"tested_on": "C. albicans SLU#1", "test": "Propidium iodide (PI) uptake by fungal cells, flow cytometry", "format": "cell-based, Candida albicans", "settings": "C. albicans SLU#1, 10 μg/mL PI, FL2 585 nm; FIG. 2", "excerpt": "As in Example 1, the auto-fluorescence control contained fungal or mammalian cells in media alone (without XMP peptide and without PI), while the baseline control contained fungal or mammalian cells with PI (but without XMP peptide). Because it is a viability dye, PI is taken up only when cells are dying or dead; the fluorescent intensity of PI-treated samples should increase with the number of dead cells and should be maximal with 100% dead cells. Thus, for this experiment, a positive control was also prepared (containing 100% dead cells) by resuspending cells in 1 mL of 70% ethanol during the last 10 minutes of the initial 1-hour incubation; this positive control thus contained 100% dead cells with PI (but without XMP peptide). Samples were analyzed for PI uptake on the FACScan using the fl2 detector at a wavelength of 585 nm. The auto-fluorescence sample was used for gating, while the fluorescence sensitivity was determined by the positive control and the PI uptake threshold was determined by the baseline control. The percent change in fluorescent intensity in mean channels was determined using the same equation used in Example 1, and the percentage of cells with PI uptake (ie., dead cells) was calculated."}, "fungal cells": {"tested_on": "fungal cells", "test": "Confocal microscopy localization of membrane potential indicator dye in fungal cells", "format": "cell-based", "settings": "DiOC6(3) 10 ng/mL or MitoTracker Red CM-H2Xros 1 μg/mL, 1 hour peptide incubation", "protocol": "Confocal microscopy provides focused fluorescence detection, one plane or slice at a time, at a focus level that allows unobstructed localization of fluorescence within cells. A suspension of 1×10^6 fungal cells/mL was prepared as described above in Example 1 and 1 mL was dispensed into each of four Eppendorf microcentrifuge tubes. Two μL of 1 mg/mL XMP.445 (in saline) was added to two tubes and all four tubes were incubated for 1 hour at 30° C. After the incubation, all tubes were centrifuged in an Eppendorf 5415 centrifuge. The supernatant was removed and the pellet resuspended in 1 mL of SDB. The membrane potential indicator dye DiOC6(3) (diluted in SDB from a stock solution of 2 mg/mL in EtOH) was added to one set of peptide-treated and untreated tubes to a final concentration of 10 ng/mL. The membrane potential indicator dye MitoTracker™ Red CM-H2Xros (from a freshly prepared solution of 500 μg/mL in DMSO) was added to another set of peptide-treated and untreated tubes to a final concentration of 1 μg/mL. The tubes were incubated at 30° C. for 30 min. After the incubation the tubes were centrifuged and the supernatant removed. The pellets were resuspended in 100 μL of 30% glycerol/PBS solution. Three μL from each tube was pipetted onto a microscope slide with a No. 1 cover glass and placed onto a Zeiss 510 Confocal Microscope that uses LSM Version 2.01 software. […]"}, "Candida albicans, SLU-1": {"tested_on": "Candida albicans, SLU-1", "test": "28-day comparative survival efficacy study in mice systemically infected with Candida albicans, oral gavage", "format": "in vivo", "settings": "for mortality vs dextrose-treated controls: male DBA/2 mice, eight times, 28 days", "protocol": "XMP.445 was tested for activity upon oral administration (oral activity) in a 28-day comparative survival efficacy study in mice systemically infected with Candida albicans. Specifically, male DBA/2 mice (Charles River Laboratories) six weeks of age were dosed with 7.9×10^4 Candida albicans, SLU-1 in 100 μl intravenously via the tail vein in a single dosage on day 0. Treatment began immediately thereafter with 400 μl oral gavage of either 0.5% dextrose, or XMP.445 in 0.5% dextrose at levels of either 10 mg/kg or 20 mg/kg every other day for a total of eight times. Amphotericin B (Fungizone®) was administered intravenously at 0.5 mg/kg as a positive control every other day for a total of eight times. Twice-day monitoring (once daily on weekends and holidays) for mortality was performed."}, "CACO-2 and MDCK cells": {"tested_on": "CACO-2 and MDCK cells", "format": "in vitro ADME", "protocol": "Various BPI-derived peptides were screened for oral absorption in in vitro screening assays using CACO-2 and MDCK cells. Cultured monolayers of CACO-2 (Human colon carcinoma) [Audus, K. L., et al. Pharm. […] The cells were grown to confluency and allowed to differentiate. The integrity of the monolayers was determined by measuring the transepithelial resistance. The cells were incubated with peptide on the apical side for 2.5 hours in MDCK screening or 4 hours for CACO-2 screening. The transepithelial transport of the peptide was measured by quantitative HPLC analysis of the incubation media on the basolateral side of the cells. Radiolabelled mannitol and cortisone were used as positive controls."}},
  "note": "Read-outs that look alike come from different tables or passages of the source. Square brackets hold non-standard residues; d marks the D form. Peptide text beside a SMILES is read from it.",
  "data": [
    {"compound": "Clc1ccc(COC(Cn2ccnc2)c2ccc(Cl)cc2Cl)c(Cl)c1", "note": "(stereo not drawn) [miconazole, reference compound]", "values": [
      {"measurement": "mammalian cell viability by PI uptake", "setting": "MDCK cells", "result": "increase in fluorescence intensity indicating cell death"},
      {"measurement": "concentration at which loss of fungal cell viability occurs", "setting": "[1]", "result": "less than or equal to 1 μg/mL"},
      {"measurement": "change in DiOC6(3) fluorescence intensity (mean channel from baseline) vs. concentration", "setting": "[1]", "result": "concentration-dependent increase in fluorescence intensity"}
    ]},
    {"compound": "CC[C@H](C)[C@H](NC(=O)[C@H](CC(C)C)NC(=O)[C@H](Cc1c[nH]c2ccccc12)NC(=O)CNC(=O)[C@@H](NC(=O)[C@@H](N)CCCCN)C(C)C)C(=O)N[C@@H](CCC(N)=O)C(=O)N[C@@H](CC(C)C)C(=O)N[C@@H](Cc1ccccc1)C(=O)N[C@@H](Cc1c[nH]cn1)C(=O)N[C@@H](CCCCN)C(=O)N[C@@H](CCCCN)C(=O)O", "note": "[XMP.391] (H-KVGWLIQLFHKK-OH; N-terminus and C-terminus assumed)", "values": [
      {"measurement": "change in DiOC6(3) fluorescence intensity in mammalian cells", "setting": "[2]", "result": "no substantial increase in fluorescence intensity"},
      {"measurement": "minimum fungicidal concentration", "setting": "C. albicans SLU#1 strain", "result": 2, "unit": "µg/mL"}
    ]},
    {"compound": "gentamicin", "values": [
      {"measurement": "concentration that produces a toxic effect", "setting": "[3]", "result": 12000, "unit": "ng/mL"},
      {"measurement": "concentration required to produce a therapeutic effect", "setting": "bacterial growth", "result": 8, "unit": "µg/mL"}
    ]},
    {"compound": "CC[C@H](C)[C@H](NC(=O)[C@H](CC(C)C)NC(=O)[C@H](Cc1c[nH]c2ccccc12)NC(=O)CNC(=O)[C@H](NC(=O)[C@H](N)CCCCN)C(C)C)C(=O)N[C@@H](CCC(N)=O)C(=O)N[C@@H](CC(C)C)C(=O)N[C@@H](Cc1ccccc1)C(=O)N[C@@H](Cc1c[nH]cn1)C(=O)N[C@H](CCCCN)C(=O)N[C@H](CCCCN)C(=O)O", "note": "[XMP.445] (H-[dK][dV]GWLIQLFH[dK][dK]-OH; N-terminus and C-terminus assumed)", "values": [
      {"measurement": "mammalian cell viability by PI uptake", "setting": "MDCK cells; MDCK cells, PI, XMP.445 even at a concentration of 50-fold or greater", "result": "did not substantially affect viability of mammalian cells"},
      {"measurement": "change in DiOC6(3) fluorescence intensity in mammalian cells", "setting": "[2]", "result": "no substantial increase in fluorescence intensity"},
      {"measurement": "fungal cell viability by PI uptake", "setting": "C. albicans SLU#1", "result": "reduction of fungal cell viability or fungal cell death"},
      {"measurement": "fluorescence intensity and localization by confocal microscopy vs untreated cells", "setting": "fungal cells", "result": "increased fluorescence intensity that was localized at the mitochondria"},
      {"measurement": "mortality vs dextrose-treated controls", "setting": "Candida albicans, SLU-1; oral gavage 10 mg/kg every other day", "result": "significant improvement (p-value of 0.025)"},
      {"measurement": "mortality vs dextrose-treated controls", "setting": "Candida albicans, SLU-1; oral gavage 10 mg/kg or 20 mg/kg every other day", "result": "improvements in mortality compared with the dextrose-treated controls"},
      {"measurement": "oral activity (study conclusion)", "setting": "Candida albicans, SLU-1; mice systemically infected with C. albicans, oral gavage", "result": "has oral antifungal activity"},
      {"measurement": "minimum fungicidal concentration", "setting": "C. albicans SLU#1 strain", "result": 4, "unit": "µg/mL"},
      {"measurement": "concentration at which loss of fungal cell viability occurs", "setting": "[1]", "result": "about 4 μg/mL"},
      {"measurement": "change in DiOC6(3) fluorescence intensity (mean channel from baseline) vs. concentration", "setting": "[1]", "result": "concentration-dependent increase in fluorescence intensity"},
      {"measurement": "intestinal absorption screening outcome", "setting": "CACO-2 and MDCK cells", "result": "potential orally available compound"}
    ]}
  ]
}
